Legend:
PDGFRA = PDGFRA (Homo sapiens, UniProt P16234); assay: KINOMEscan binding assay; conditions: read-out: % Ctrl @ 10000 nM
HCK = HCK (Homo sapiens, UniProt P08631); assay: KINOMEscan binding assay; conditions: read-out: % Ctrl @ 10000 nM
NEK2 = NEK2 (Homo sapiens, UniProt P51955); assay: KINOMEscan binding assay; conditions: read-out: % Ctrl @ 10000 nM
NDR1 = NDR1 (Homo sapiens, UniProt Q15208); assay: KINOMEscan binding assay; conditions: read-out: % Ctrl @ 10000 nM
EPHB1 = EPHB1 (Homo sapiens, UniProt P54762); assay: KINOMEscan binding assay; conditions: read-out: % Ctrl @ 10000 nM
MARK3 = MARK3 (Homo sapiens, UniProt P27448); assay: KINOMEscan binding assay; conditions: read-out: % Ctrl @ 10000 nM
CAMK4 = CAMK4 (Homo sapiens, UniProt Q16566); assay: KINOMEscan binding assay; conditions: read-out: % Ctrl @ 10000 nM
FLT3 (K663Q) = FLT3 (K663Q) (Homo sapiens, UniProt P36888, K663Q); assay: KINOMEscan binding assay; conditions: read-out: % Ctrl @ 10000 nM
TEC = TEC (Homo sapiens, UniProt P42680); assay: KINOMEscan binding assay; conditions: read-out: % Ctrl @ 10000 nM
TEC, sequence (P42680 whole entry): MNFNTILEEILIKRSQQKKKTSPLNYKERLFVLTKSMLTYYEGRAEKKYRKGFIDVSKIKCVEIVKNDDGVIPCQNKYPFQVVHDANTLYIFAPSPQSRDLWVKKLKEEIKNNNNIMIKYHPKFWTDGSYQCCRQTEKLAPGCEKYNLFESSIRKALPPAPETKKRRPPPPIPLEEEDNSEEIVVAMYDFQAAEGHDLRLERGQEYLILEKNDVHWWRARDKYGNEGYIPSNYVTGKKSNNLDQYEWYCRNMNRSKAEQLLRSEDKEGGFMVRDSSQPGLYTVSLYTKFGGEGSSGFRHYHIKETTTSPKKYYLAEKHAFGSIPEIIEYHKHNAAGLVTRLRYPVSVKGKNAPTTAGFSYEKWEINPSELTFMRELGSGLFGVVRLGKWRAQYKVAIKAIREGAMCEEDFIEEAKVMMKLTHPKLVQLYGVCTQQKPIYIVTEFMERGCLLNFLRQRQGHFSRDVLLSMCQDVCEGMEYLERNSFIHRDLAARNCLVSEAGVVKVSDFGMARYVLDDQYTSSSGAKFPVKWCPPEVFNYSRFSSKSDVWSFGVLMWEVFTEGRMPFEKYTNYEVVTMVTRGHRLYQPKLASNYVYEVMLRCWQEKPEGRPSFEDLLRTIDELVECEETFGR

PKNB M. tuberculosis = PKNB M. tuberculosis (Mycobacterium tuberculosis, UniProt P9WI81); assay: biochemical; type: binding; conditions: read-out: % Ctrl @ 10000 nM
[1] = biological target: ABL1 (H396P) non-phosphorylated (Homo sapiens, UniProt P00519, H396P); assay: KINOMEscan binding assay; conditions: read-out: % Ctrl @ 10000 nM
ERK5 = ERK5 (Homo sapiens, UniProt Q13164); assay: KINOMEscan binding assay; conditions: read-out: % Ctrl @ 10000 nM
non-mutant kinases = assay: KINOMEscan kinase screening panel, binding capacity and Selectivity Score; conditions: 10 μM, 395 non-mutant kinases
Protocol: The assay was carried out according to the established KINOMEscan® technology (DiscoveRx® LeadHunter®, Discovery services, www.discoverx.com). […] Screening “hits” are identified by measuring the amount of kinase captured in test versus control samples by using a quantitative, qPCR method that detects an associated DNA label. For most assays, kinase-tagged T7 phage strains ware grown in parallel in 24-well blocks in an E. coli host derived from the BL21 strain. E. coli were grown to log-phase and infected with T7 phage from a frozen stock (multiplicity of infection=0.4) and incubated with shading at 32° C. until lysis (90-150 minutes). The lysates were centrifuged (6,000×g) and filtered (0.2 μm) to remove cell debris. The remaining kinases were produced in HEK293 cells and subsequently tagged with DMA for qPCR detection. Streptavidin-coated magnetic beads were treated with biotinylated small molecule ligands for 30 minutes at room temperature to generate affinity resins for kinase assays. The liganded beads were blocked with excess biotin and washed with blocking buffer (SeaBlock (Pierce), 1% BSA, 0.05 % Tween 20, 1 mM DTT) to remove unbound ligand and to reduce non-specific phage binding. […] All reactions were performed in polypropylene 384-well plates in a final volume of 0.04 ml. The assay plates were incubated at room temperature with shaking for 1 hour and the affinity beads were washed with wash buffer (1×PBS, 0.05% Tween 20). The beads were then re-suspended in elution buffer (1×PBS, 0.05 % Tween 20, 0.5 μM non-biotinylated affinity ligand) and incubated at room temperature with shaking for 30 minutes. The kinase concentration in the eluates was measured by qPCR.
Results were reported as “% Ctrl”, where lower numbers indicate stronger hits. The calculation of the “% Ctrl” was as follow:
In addition to the binding capacity, the Selectivity Score (or S-score) was calculated (Karaman, M. W. et al. A quantitative analysis of kinase inhibitor selectivity. Nat. Biotechnol. 26, 127-132 (2008). The S-score is a quantitative measure of compound selectivity. It is calculated by dividing the number of kinases that a compound binds to by the total number of distinct kinases tested, excluding mutant variants. S-score−Number of hits/Number of assays
S(35)=(number of non-mutant kinases with % Ctrl<35)/(number of non-mutant kinases tested)
S(10)=(number of non-mutant kinases with % Ctrl<10)/(number of non-mutant kinases tested)
S(1)=(number of non-mutant kinases with % Ctrl<1)/(number of non-mutant kinases tested)
and provides a quantitative method of describing compound selectivity to facilitate comparison of different compounds. The screening concentration was 10 μM.

PIK3CA (E542K) = PIK3CA (E542K) (Homo sapiens, UniProt P42336, E542K); assay: KINOMEscan binding assay; conditions: read-out: % Ctrl @ 10000 nM
DDR1 = DDR1 (Homo sapiens, UniProt Q08345); assay: KINOMEscan binding assay; conditions: read-out: % Ctrl @ 10000 nM
DDR1, sequence (Q08345 19-913): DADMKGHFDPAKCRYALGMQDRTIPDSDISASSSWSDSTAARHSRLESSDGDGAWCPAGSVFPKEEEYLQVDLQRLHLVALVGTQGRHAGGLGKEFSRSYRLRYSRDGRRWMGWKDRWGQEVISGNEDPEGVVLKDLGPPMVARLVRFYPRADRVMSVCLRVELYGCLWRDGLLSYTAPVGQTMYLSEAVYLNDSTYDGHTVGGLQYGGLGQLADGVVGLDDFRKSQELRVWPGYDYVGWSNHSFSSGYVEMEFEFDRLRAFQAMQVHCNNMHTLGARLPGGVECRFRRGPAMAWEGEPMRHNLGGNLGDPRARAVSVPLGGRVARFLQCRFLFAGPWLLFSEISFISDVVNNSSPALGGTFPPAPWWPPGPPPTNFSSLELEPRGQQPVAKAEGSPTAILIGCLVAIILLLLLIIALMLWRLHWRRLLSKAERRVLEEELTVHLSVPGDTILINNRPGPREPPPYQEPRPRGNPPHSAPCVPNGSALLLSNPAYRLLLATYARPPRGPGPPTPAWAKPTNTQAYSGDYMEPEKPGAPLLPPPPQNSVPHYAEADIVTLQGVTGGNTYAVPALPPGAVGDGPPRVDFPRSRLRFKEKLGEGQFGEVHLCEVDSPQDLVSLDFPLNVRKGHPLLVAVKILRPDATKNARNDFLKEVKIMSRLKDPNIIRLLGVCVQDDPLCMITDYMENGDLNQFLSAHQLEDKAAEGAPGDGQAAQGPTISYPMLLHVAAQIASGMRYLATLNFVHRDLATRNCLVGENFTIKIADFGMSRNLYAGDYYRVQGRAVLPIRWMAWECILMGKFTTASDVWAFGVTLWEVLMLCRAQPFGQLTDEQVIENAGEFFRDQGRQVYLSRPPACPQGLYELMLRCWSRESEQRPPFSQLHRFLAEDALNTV

NEK6 = NEK6 (Homo sapiens, UniProt Q9HC98); assay: KINOMEscan binding assay; conditions: read-out: % Ctrl @ 10000 nM
QSK = QSK (Homo sapiens, UniProt Q9Y2K2); assay: KINOMEscan binding assay; conditions: read-out: % Ctrl @ 10000 nM
FLT3 (D835H) = FLT3 (D835H) (Homo sapiens, UniProt P36888, D835H); assay: KINOMEscan binding assay; conditions: read-out: % Ctrl @ 10000 nM
JNK1 = JNK1 (Homo sapiens, UniProt P45983); assay: KINOMEscan binding assay; conditions: read-out: % Ctrl @ 10000 nM
PRKG2 = PRKG2 (Homo sapiens, UniProt Q13237); assay: KINOMEscan binding assay; conditions: read-out: % Ctrl @ 10000 nM
PRKG2, sequence (Q13237 whole entry): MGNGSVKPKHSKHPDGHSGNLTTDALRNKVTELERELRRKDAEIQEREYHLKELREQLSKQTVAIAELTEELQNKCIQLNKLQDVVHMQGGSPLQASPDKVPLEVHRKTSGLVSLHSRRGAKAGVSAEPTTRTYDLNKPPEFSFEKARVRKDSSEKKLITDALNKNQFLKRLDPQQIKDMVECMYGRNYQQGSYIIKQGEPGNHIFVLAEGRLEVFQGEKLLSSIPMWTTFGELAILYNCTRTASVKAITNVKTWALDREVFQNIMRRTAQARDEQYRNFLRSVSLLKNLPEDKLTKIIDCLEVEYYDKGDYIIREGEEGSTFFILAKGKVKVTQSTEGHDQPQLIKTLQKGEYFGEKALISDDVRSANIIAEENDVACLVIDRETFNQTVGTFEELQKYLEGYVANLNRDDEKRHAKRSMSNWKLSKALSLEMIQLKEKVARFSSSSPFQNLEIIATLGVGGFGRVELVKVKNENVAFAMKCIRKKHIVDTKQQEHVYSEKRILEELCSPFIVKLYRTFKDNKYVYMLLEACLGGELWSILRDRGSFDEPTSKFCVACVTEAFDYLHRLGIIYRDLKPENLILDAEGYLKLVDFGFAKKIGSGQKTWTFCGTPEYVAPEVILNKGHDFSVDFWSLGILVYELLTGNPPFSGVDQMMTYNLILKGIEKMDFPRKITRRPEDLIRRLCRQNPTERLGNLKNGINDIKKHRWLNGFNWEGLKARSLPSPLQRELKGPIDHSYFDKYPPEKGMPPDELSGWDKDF

[2] = biological target: RSK2 Kin.Dom.2-C-terminal (Homo sapiens, UniProt P51812); assay: KINOMEscan binding assay; conditions: read-out: % Ctrl @ 10000 nM
FLT3 (ITD) = assay: KINOMEscan binding assay
TBK1 = TBK1 (Homo sapiens, UniProt Q9UHD2); assay: KINOMEscan binding assay; conditions: read-out: % Ctrl @ 10000 nM
TBK1, sequence (Q9UHD2 whole entry): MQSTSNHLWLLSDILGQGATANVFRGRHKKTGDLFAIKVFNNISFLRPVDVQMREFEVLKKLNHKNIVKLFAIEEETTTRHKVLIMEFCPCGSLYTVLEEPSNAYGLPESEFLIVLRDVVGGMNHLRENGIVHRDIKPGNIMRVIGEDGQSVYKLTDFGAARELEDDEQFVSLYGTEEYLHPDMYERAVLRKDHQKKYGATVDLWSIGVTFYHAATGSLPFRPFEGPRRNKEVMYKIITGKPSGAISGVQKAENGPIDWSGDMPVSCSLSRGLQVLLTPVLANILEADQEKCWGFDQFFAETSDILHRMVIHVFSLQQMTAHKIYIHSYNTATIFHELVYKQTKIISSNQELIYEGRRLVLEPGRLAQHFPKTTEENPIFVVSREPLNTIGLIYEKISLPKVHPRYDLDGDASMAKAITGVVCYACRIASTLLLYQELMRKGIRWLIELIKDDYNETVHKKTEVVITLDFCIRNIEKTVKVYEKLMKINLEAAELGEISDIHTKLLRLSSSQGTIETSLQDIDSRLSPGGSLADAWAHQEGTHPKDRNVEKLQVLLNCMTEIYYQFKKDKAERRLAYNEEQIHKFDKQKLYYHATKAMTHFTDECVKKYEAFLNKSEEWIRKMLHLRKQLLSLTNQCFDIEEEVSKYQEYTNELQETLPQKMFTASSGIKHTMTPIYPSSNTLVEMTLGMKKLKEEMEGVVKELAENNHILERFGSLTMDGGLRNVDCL

KIT-autoinhibited = KIT-autoinhibited (Homo sapiens, UniProt P10721); assay: KINOMEscan binding assay; conditions: read-out: % Ctrl @ 10000 nM
KIT-autoinhibited, sequence (P10721 546-976 limits assumed): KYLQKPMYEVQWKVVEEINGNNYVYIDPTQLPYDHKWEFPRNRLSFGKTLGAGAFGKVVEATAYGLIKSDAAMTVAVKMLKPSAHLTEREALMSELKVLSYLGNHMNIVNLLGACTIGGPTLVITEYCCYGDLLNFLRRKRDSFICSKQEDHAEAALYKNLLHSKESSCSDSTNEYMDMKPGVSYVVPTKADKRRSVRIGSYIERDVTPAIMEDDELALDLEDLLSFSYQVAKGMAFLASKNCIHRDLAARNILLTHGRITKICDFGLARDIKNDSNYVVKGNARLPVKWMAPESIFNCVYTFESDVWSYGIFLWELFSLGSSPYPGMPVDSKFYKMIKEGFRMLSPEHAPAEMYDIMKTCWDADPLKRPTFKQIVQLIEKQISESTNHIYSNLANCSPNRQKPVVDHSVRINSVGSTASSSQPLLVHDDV

TAK1 = TAK1 (Homo sapiens, UniProt O43318); assay: KINOMEscan binding assay; conditions: read-out: % Ctrl @ 10000 nM
TAK1, sequence (O43318 whole entry): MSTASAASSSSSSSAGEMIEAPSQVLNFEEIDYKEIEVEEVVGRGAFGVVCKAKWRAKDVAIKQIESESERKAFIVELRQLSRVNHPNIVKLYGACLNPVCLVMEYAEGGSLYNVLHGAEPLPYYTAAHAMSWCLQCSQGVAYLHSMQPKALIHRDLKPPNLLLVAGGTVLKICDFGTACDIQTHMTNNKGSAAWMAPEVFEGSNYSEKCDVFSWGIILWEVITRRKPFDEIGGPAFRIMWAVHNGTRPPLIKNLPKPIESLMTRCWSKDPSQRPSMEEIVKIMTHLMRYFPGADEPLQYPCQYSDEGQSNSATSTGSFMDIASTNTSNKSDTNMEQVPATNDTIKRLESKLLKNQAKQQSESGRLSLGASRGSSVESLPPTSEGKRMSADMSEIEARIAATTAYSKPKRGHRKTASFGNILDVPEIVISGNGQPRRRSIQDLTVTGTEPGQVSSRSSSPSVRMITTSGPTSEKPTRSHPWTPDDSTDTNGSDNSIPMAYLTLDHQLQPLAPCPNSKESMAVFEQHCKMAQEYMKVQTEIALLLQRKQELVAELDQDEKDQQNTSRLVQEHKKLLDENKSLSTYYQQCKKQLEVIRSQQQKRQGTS

HUNK = HUNK (Homo sapiens, UniProt P57058); assay: KINOMEscan binding assay; conditions: read-out: % Ctrl @ 10000 nM
CAMK2B = CAMK2B (Homo sapiens, UniProt Q13554); assay: KINOMEscan binding assay; conditions: read-out: % Ctrl @ 10000 nM
MARK4 = MARK4 (Homo sapiens, UniProt Q96L34); assay: KINOMEscan binding assay; conditions: read-out: % Ctrl @ 10000 nM
[3] = biological target: RPS6KA5 Kin.Dom.1-N-terminal (Homo sapiens, UniProt O75582); assay: KINOMEscan binding assay; conditions: read-out: % Ctrl @ 10000 nM

NDR1, sequence (Q15208 whole entry): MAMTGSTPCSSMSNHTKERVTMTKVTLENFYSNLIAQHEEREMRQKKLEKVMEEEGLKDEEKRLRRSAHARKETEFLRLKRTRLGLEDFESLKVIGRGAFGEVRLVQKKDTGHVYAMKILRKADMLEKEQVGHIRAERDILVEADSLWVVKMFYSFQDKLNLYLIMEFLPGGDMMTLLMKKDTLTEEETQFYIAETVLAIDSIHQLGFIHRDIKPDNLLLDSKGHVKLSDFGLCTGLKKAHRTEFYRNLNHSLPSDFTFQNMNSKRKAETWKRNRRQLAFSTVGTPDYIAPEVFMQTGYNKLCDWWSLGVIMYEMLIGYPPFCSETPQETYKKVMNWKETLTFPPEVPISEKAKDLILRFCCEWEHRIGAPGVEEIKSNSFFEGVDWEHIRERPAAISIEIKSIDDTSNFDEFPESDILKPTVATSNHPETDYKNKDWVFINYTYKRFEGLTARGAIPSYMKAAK
HCK, sequence (P08631 whole entry): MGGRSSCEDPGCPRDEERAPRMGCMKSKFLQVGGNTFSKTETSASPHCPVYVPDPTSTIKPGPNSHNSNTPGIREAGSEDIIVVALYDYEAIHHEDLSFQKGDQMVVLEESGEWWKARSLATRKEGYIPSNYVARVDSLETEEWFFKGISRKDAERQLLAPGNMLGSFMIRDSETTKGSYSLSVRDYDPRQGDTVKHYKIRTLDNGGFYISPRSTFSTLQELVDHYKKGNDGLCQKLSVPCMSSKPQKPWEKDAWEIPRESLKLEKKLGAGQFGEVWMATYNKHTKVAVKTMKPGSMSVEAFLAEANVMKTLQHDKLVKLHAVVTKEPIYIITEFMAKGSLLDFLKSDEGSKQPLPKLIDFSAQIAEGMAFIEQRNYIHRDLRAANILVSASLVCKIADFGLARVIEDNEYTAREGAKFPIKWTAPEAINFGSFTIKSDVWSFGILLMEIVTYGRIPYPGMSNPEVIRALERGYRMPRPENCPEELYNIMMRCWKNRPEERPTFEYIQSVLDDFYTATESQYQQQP

Structure (SMILES): Nc1ncc(-c2nc3ccccc3o2)c(-c2ccncc2)n1 [Comparative Compound 324, 5-(1,3-benzoxazol-2-yl)-4-(pyridine-4-yl)pyrimidin-2-amine]
- remaining binding at 10 µM (PDGFRA): 86%
- remaining binding at 10 µM (HCK): 100%
- remaining binding at 10 µM (NEK2): 98%
- remaining binding at 10 µM (NDR1): 73%
- remaining binding at 10 µM (EPHB1): 86%
- remaining binding at 10 µM (MARK3): 100%
- remaining binding at 10 µM (CAMK4): 89%
- remaining binding at 10 µM (FLT3 (K663Q)): 100%
- remaining binding at 10 µM (TEC): 94%
- remaining activity at 10 µM (PKNB M. tuberculosis): 74%
- remaining binding at 10 µM [1]: 66%
- remaining binding at 10 µM (ERK5): 93%
- Number of Hits S (1) (non-mutant kinases; % Ctrl<1): 0
- S-score S (1) (non-mutant kinases; % Ctrl<1): 0
- Number of Hits S (10) (non-mutant kinases; % Ctrl<10): 4
- S-score S (10) (non-mutant kinases; % Ctrl<10): 0.01
- Number of Hits S (35) (non-mutant kinases; % Ctrl<35): 8
- S-score S (35) (non-mutant kinases; % Ctrl<35): 0.02
- remaining binding at 10 µM (PIK3CA (E542K)): 98%
- remaining binding at 10 µM (DDR1): 94%
- remaining binding at 10 µM (NEK6): 91%
- remaining binding at 10 µM (QSK): 99%
- remaining binding at 10 µM (FLT3 (D835H)): 68%
- remaining binding at 10 µM (JNK1): 52%
- remaining binding at 10 µM (PRKG2): 82%
- remaining binding at 10 µM [2]: 100%
- % Ctrl @ 10000 nM (FLT3 (ITD)): 85 % Ctrl
- remaining binding at 10 µM (TBK1): 85%
- remaining binding at 10 µM (KIT-autoinhibited): 88%
- remaining binding at 10 µM (TAK1): 81%
- remaining binding at 10 µM (HUNK): 96%
- remaining binding at 10 µM (CAMK2B): 100%
- remaining binding at 10 µM (MARK4): 100%
- remaining binding at 10 µM [3]: 95%

Structure (SMILES): CNc1c(C(N)=O)c2ccccn2c1C(=O)c1ccc(F)cc1 [Compound A, 2-methyl-amino-3-[(4-fluorophenyl)carbonyl]indolizine-1-carboxamide]
- remaining binding at 10 µM (PDGFRA): 89%
- remaining binding at 10 µM (HCK): 65%
- remaining binding at 10 µM (NEK2): 92%
- remaining binding at 10 µM (NDR1): 74%
- remaining binding at 10 µM (EPHB1): 69%
- remaining binding at 10 µM (MARK3): 88%
- remaining binding at 10 µM (CAMK4): 96%
- remaining binding at 10 µM (FLT3 (K663Q)): 99%
- remaining binding at 10 µM (TEC): 88%
- remaining activity at 10 µM (PKNB M. tuberculosis): 86%
- remaining binding at 10 µM [1]: 14%
- remaining binding at 10 µM (ERK5): 78%
- remaining binding at 10 µM (PIK3CA (E542K)): 90%
- remaining binding at 10 µM (DDR1): 2.6%
- remaining binding at 10 µM (NEK6): 76%
- remaining binding at 10 µM (QSK): 82%
- remaining binding at 10 µM (FLT3 (D835H)): 60%
- remaining binding at 10 µM (JNK1): 45%
- remaining binding at 10 µM (PRKG2): 76%
- remaining binding at 10 µM [2]: 43%
- remaining binding at 10 µM (TBK1): 74%
- remaining binding at 10 µM (KIT-autoinhibited): 78%
- remaining binding at 10 µM (TAK1): 56%
- remaining binding at 10 µM (HUNK): 79%
- remaining binding at 10 µM (CAMK2B): 62%
- remaining binding at 10 µM (MARK4): 100%
- remaining binding at 10 µM [3]: 96%
